In patent publication US8822495B2, “Azacyclyl-substituted aryldihydroisoquinolinones, process for their preparation and their use as medicaments” (Sanofi, priority 2006, dated 2014):

Target: T1, human MCH receptor (Homo sapiens, UniProt Q99705)
T1 construct: expressed in transfected cells
Assay: functional IC50 of MCH1R antagonists: cellular calcium flux (FLIPR), called calcium immobilization assay
Type: cell-based
Conditions: calcium flux after addition of agonist (MCH), recombinant HEK293 cell line expressing the human MCH receptor
Source text: Influence on the MCH receptor in vitro; determination of functional IC50 values of MCH1R antagonists
Cloning of the cDNA for the human MCH receptor, preparation of a recombinant HEK293 cell line which expresses the human MCH receptor, and functional measurements with the recombinant cell line took place in analogy to the description by Audinot et al. (J. Biol. Chem. 276, 13554-13562, 2001). A difference from the reference was, however, the use of the plasmid pEAK8 from EDGE Biosystems (USA) for the construction of the expression vector. The host used for the transfection was a transformed HEK cell line named “PEAK Stable Cells” (likewise from EDGE Biosystems). Functional measurements of the cellular calcium flux after addition of agonist (MCH) in the presence of ligand of the invention took place with the aid of the FLIPR apparatus from Molecular Devices (USA), using protocols of the apparatus manufacturer. The compounds of the invention show a significant inhibition (>30%) of the signal induced by the agonist at a concentration of 100 μM, preferably at 10 μM, particularly preferably at 1 μM, very particularly preferably at 100 nM and even more particularly preferably at 10 nM.

T1 sequence (Q99705 whole entry): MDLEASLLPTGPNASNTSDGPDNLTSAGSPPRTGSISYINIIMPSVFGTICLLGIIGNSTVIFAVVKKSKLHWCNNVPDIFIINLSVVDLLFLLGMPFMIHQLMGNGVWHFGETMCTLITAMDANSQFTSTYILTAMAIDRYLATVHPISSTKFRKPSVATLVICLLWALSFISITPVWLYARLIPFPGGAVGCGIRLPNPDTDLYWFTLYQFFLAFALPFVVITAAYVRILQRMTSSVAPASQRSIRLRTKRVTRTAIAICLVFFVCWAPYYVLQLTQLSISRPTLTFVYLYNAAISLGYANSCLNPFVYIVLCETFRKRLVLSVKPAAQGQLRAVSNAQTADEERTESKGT

Q: CC(C)C(=O)Nc1ccc2c(c1)CCN(c1ccc(N3CC[C@@H](N(C)C)C3)c(F)c1)C2=O [Example 95] was tested. Which IC50 did it give?
A: 3.41 µM

Q: CCCCOc1ccc2c(c1)CCN(c1ccc(N3CCC(N(C)C)C3)c(Cl)c1)C2=O (stereo not drawn) [Example 1, 6-Butoxy-2-[3-chloro-4-(3-dimethylaminopyrrolidin-1-yl)phenyl]-3,4-dihydro-2H-isoquinolin-1-one] was tested. Which IC50 did it give?
A: 0.99 µM

Q: With CC[C@H](O)COc1ccc2c(c1)CCN(c1ccc(N3CC[C@]4(CCN(CCCF)C4)C3)cc1)C2=O [Example 176] as the molecule, how does the IC50 read?
A: 0.31 µM

Q: How did the IC50 turn out when CC1=C(C)C(=O)N(c2ccc3c(c2)CCN(c2ccc(N4CC[C@@H](N(C)C)C4)c(F)c2)C3=O)C1 [Example 112] was run?
A: 7.54 µM

Q: With CC1CCN(c2ccc3c(c2)CCN(c2ccc(N4CC[C@@H](N(C)C)C4)c(F)c2)C3=O)CC1 [Example 24, 2-[4-((R)-3-Dimethylaminopyrrolidin-1-yl)-3-fluorophenyl]-6-(4-methylpiperidin-1-yl)-3,4-dihydro-2H-isoquinolin-1-one] as the molecule, how does the IC50 read?
A: 1.19 µM

Q: For CN(C)[C@@H]1CCN(c2ccc(N3CCc4cc(C#CC(C)(C)O)sc4C3=O)cc2)C1 [Example 361], which IC50 is on record?
A: 2.56 µM

Q: CC1(O)CCN(C2CCN(c3ccc(-n4ccc5cc(OC[C@H]6CCCO6)ccc5c4=O)cc3F)C2)CC1 (stereo partly drawn) [Example 321] was tested. Which IC50 did it give?
A: 0.15 µM

Q: Which IC50 does the source give for CN(C)C1(C)CCN(c2ccc(-n3ccc4cc(OC[C@H]5CCCO5)ccc4c3=O)cc2F)C1 (stereo partly drawn) [Example 356, 2-[4-(3-Dimethylamino-3-methyl-pyrrolidin-1-yl)-3-fluorophenyl]-6-[(R)-1-(tetrahydrofuran-2-yl)methoxy]-2H-isoquinolin-1-one] here?
A: 1.14 µM

Q: Which IC50 does the source give for COCCCNC1CCN(c2ccc(-n3ccc4cc(OC[C@H]5CCCO5)ccc4c3=O)cc2F)C1 (stereo partly drawn) [Example 303] here?
A: 0.38 µM

Q: Which IC50 does the source give for CN(C)[C@@H]1CCN(c2ccc(N3CCc4cc(N5C[C@H]6CCCN6C5=O)ccc4C3=O)cc2F)C1 [Example 99] here?
A: 1.68 µM

Q: With CCCCOc1ccc2c(c1)CCN(c1ccc(N3CCC(NCCCN4CCCC4=O)C3)cc1)C2=O (stereo not drawn) [Example 45] as the molecule, how does the IC50 read?
A: 0.22 µM

Q: How did the IC50 turn out when COc1cc(-n2ccc3cc(OC[C@@H]4CCCO4)ccc3c2=O)ccc1N1CCCN(C)CC1 [Example 326] was run?
A: 0.22 µM

Q: With CO[C@@H]1CN(c2ccc(-n3ccc4cc(OC[C@H]5CCCO5)ccc4c3=O)cc2F)C[C@H]1N(C)C (relative stereo) [Example 353, 2-[4-((3R*,4R*)-3-Dimethylamino-4-methoxy-pyrrolidin-1-yl)-3-fluorophenyl]-6-[(R)-1-(tetrahydrofuran-2-yl)methoxy]-2H-isoquinolin-1-one] as the molecule, how does the IC50 read?
A: 23.8 µM

Q: O=C1CCCN1CCOc1ccc2c(=O)n(-c3ccc(N4CC[C@@H](N5CCCC5)C4)c(F)c3)ccc2c1 [Example 246] was tested. Which IC50 did it give?
A: 13 µM

Q: Which IC50 does the source give for CC(O)CCOc1ccc2c(=O)n(-c3ccc(N4CC[C@@H](N5CCCC5)C4)c(F)c3)ccc2c1 (stereo partly drawn) [Example 251] here?
A: 0.41 µM

Q: How did the IC50 turn out when C[C@@H](O)C#Cc1ccc2c(=O)n(-c3ccc(N4CC[C@@H](N5CCCC5)C4)c(F)c3)ccc2c1 [Example 136] was run?
A: 0.1 µM

Q: How did the IC50 turn out when CC1CCOC1COc1ccc2c(=O)n(-c3ccc(N4CC[C@@H](N5CCCC5)C4)c(F)c3)ccc2c1 (stereo partly drawn) [Example 202] was run?
A: 0.5 µM

Q: Which IC50 does the source give for O=C1c2ccc(OC[C@@H]3CCCO3)cc2CCN1c1ccc(N2CCC(N3CC4CCC4C3)C2)c(F)c1 (stereo partly drawn) [Example 264] here?
A: 0.59 µM

Q: With CN(C)[C@@H]1CCN(c2ccc(N3CCc4cc(OC5CCC(O)C5)ccc4C3=O)cc2F)C1 (stereo partly drawn) [Example 219] as the molecule, how does the IC50 read?
A: 1.46 µM

Q: With CN[C@@H]1CCN(c2ccc(N3CCc4cc(OC5CC(C)OC5=O)ccc4C3=O)cc2F)C1 (stereo partly drawn) [Example 84] as the molecule, how does the IC50 read?
A: 6.24 µM

Q: Which IC50 does the source give for CCCCOc1ccc2c(c1)CCN(c1ccc(N3CC[C@@H](N(C)CCS(C)(=O)=O)C3)c(F)c1)C2=O [Example 14, 6-Butoxy-2-(3-fluoro-4-{(R)-3-[(2-methanesulfonylethyl)methylamino]pyrrolidin-1-yl}phenyl)-3,4-dihydro-2H-isoquinolin-1-one] here?
A: 1.07 µM

Q: Which IC50 does the source give for CN1CC2(CCN(c3ccc(-n4ccc5cc(OC[C@H]6CCCO6)ccc5c4=O)cc3F)C2)C1 [Example 354] here?
A: 0.22 µM

Q: Which IC50 does the source give for O=c1c2ccc(OCCCF)cc2ccn1-c1ccc(N2CC[C@]3(CCN(CCCF)C3)C2)cc1 [Example 210] here?
A: 0.36 µM

Q: How did the IC50 turn out when CN1C[C@H]2CCN(c3ccc(-n4ccc5cc(OC[C@@H]6CCCO6)ccc5c4=O)cc3)[C@H]2C1 [Example 324] was run?
A: 0.2 µM

Q: With CC(=O)N(C)C1CCCN(c2ccc(-n3ccc4cc(OC[C@@H]5CCCO5)ccc4c3=O)cc2)C1 (stereo partly drawn) [Example 327] as the molecule, how does the IC50 read?
A: 3.69 µM

Q: Which IC50 does the source give for CC[C@H](O)COc1ccc2c(c1)CCN(c1ccc(N3CCC4CN(C)CC43)cc1)C2=O (stereo partly drawn) [Example 287] here?
A: 1.96 µM

Q: How did the IC50 turn out when CN(C)[C@@H]1CCN(c2ccc(N3CCc4cc(OCC5(C)COC5)ccc4C3=O)cc2F)C1 [Example 224] was run?
A: 1.42 µM

Q: For CC(C)(O)CN1CC[C@]2(CCN(c3ccc(N4CCc5cc(OC[C@@H]6CCCO6)ccc5C4=O)cc3)C2)C1 [Example 206], which IC50 is on record?
A: 0.2 µM

Q: Which IC50 does the source give for O=c1c2ccc(OC[C@H]3CCCO3)cc2ccn1-c1ccc(N2CCC3(CNCCO3)C2)c(F)c1 (stereo partly drawn) [Example 341] here?
A: 1.6 µM

Q: Which IC50 does the source give for CC(O)CCNc1ccc2c(c1)CCN(c1ccc(N3CC[C@@H](N(C)C)C3)c(F)c1)C2=O (stereo partly drawn) [Example 106] here?
A: 4.21 µM

Q: O=c1c2ccc(OCC(O)C(F)(F)F)cc2ccn1-c1ccc(N2CC[C@@H](N3CCCC3)C2)c(F)c1 (stereo partly drawn) [Example 154] was tested. Which IC50 did it give?
A: 0.18 µM

Q: How did the IC50 turn out when CC1(O)CCCC1Oc1ccc2c(=O)n(-c3ccc(N4CC[C@@H](N5CCCC5)C4)c(F)c3)ccc2c1 (stereo partly drawn) [Example 168] was run?
A: 1.39 µM

Q: How did the IC50 turn out when CCCCOc1ccc2c(c1)CCN(c1ccc(N3CCC(N4CCN(C(C)=O)CC4)C3)cc1)C2=O (stereo not drawn) [Example 39, 2-{4-[3-(4-Acetylpiperazin-1-yl)pyrrolidin-1-yl]phenyl}-6-butoxy-3,4-dihydro-2H-isoquinolin-1-one] was run?
A: 0.23 µM
